Measured values as given in patent publication US20080242600A1, “Backbone Cyclized Melanocortin Stimulating Hormone (Alpha Msh) Analogs” (priority 2005, published 2008).
“Also recorded” adds a separate entry of the source. *1 amine or outer side, *2 acyl side, *3 side chain or, on linkers, in order; H or OH if unused. Where a SMILES comes first, the peptide text is derived from it. Bridges are numbered along the chain shown (N, C = ends). [ ]: non-standard residue; d: D form. NGly(3-aminopropyl) = O=C(CN(CCCN[*:3])[*:1])[*:2]; N(2-Aminoethyl)Gly = O=C(CN(CCN[*:3])[*:1])[*:2]; Heptanedioyl = O=C(CCCCCC(=O)[*:2])[*:1]; Adipoyl = O=C(CCCCC(=O)[*:2])[*:1]; Glutaryl = O=C(CCCC(=O)[*:2])[*:1]; Suc = O=C(CCC(=O)[*:2])[*:1]; Nlys = NCCCCNCC(=O)O

Tests used:
[1] = biological target: T1, MC4R (Homo sapiens, UniProt P32245); assay: Receptor binding assay (IC50 on the MC4R)
T1 construct: expressed in transfected cells; host or cells: CHO cells
T1 sequence (P32245 whole entry, species assumed): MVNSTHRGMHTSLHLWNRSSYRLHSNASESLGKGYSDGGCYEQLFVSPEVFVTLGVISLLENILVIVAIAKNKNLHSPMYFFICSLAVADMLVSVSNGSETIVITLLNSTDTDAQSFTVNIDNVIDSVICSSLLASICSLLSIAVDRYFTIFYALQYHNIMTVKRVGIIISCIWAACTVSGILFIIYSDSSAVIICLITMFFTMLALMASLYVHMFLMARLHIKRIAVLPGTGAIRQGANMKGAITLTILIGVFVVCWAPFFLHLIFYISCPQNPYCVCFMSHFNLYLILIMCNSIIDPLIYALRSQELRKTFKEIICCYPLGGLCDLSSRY
Source text: The analogs can be further tested in vitro for their influence on cyclic adenosine monophosphate (cAMP) levels. Intestinal permeability and metabolic stability of the analogs can be tested in vivo. The analogs can be further tested in vivo in preclinical models in order to identify the optimal mode of administration and proper dose, and to verify the safety and the efficacy of these new potential therapeutic drugs.
Transfected CHO cells are washed with binding buffer 8 and distributed into 96-well plates (approximately 40,000 cells/well). […] NDP-α-MSH and appropriate concentrations of an unlabelled ligand. After incubation, the cells are washed with 0.2 ml of ice-cold binding buffer and detached from the plates with 0.2 ml of 0.1 N NaOH. Radioactivity is counted (Wallac, Wizard automatic gamma counter) and data analyzed with a software package for radioligand binding analyses (Wan System, Umea, Sweden) by fitting it to formulas derived from the law of mass-action by the method generally referred to as computer modeling. The binding assays are performed in duplicate wells.

[2] = Assessment of intestinal metabolic stability in brush border membrane vesicles; format: in vitro ADME; conditions: rat intestinal brush border membranes
Procedure: Brush-border membrane vesicles (BBMVs) were prepared from combined duodenum, jejunum, and upper ileum by a Ca++precipitation method (PEERCE). The intestines of 5 male Wistar rats, 200-250 g, were rinsed with ice cold 0.9% Nacl and freed of mucos, the mucosa was scraped off the luminal surface with glass slides and put immediately into buffer containing […] Kcl and 10 mM Tris-HCl (pH 7.5, 4° C.) and the mixture homogenated by Ploytron (Polytron PT 1200, Kinematica AG, Switzerland). CaCl was added to a final concentration of 10 mM. The homogenate was left shaking for 30 min at 4° C. and afterwards centrifuged at 10,000 g for 10 min (centrifuge) the supernatant was then centrifuged at 48,000 g for 30 min an additional two purification steps were undertaken by suspending the pellet in 300 mM mannitol and 10 mM Hepes/Tris (pH 7.5) and centrifuge 24,000 g/hr. Purification of brush border membranes was assayed using the brush border membrane enzyme markers GGT, LAP and alkaline phosphatase. During the course of these studies, enrichment in brush border membrane enzymes varied between 13- and 18-fold.

[3] = biological target: T1, MC4R; assay: Determination of receptor activation (cAMP accumulation assay); format: cell-based
Procedure: cAMP Accumulation Assays: 48 h after transfection, CHO cells are washed once with PBS and then detached from the plate with PBS containing 0.02% EDTA (Sigma). The detached cells are harvested by centrifugation and resuspended in Hanks' balanced salt solution (Invitrogen) containing 0.5 mM IBMX, 2 mM HEPES, pH 7.5 (IBMX buffer). After incubation at 37° C. for 15 min to allow for IBMX uptake, 0.4 ml of cell suspension (5×10^5 cells/ml) is added to 0.1 ml of IBMX buffer containing various concentrations of agonists or 10 μM forskolin. The cells are subsequently incubated at 37° C. for 15 min to allow for cAMP accumulation. The activity is terminated by adding 0.5 ml of 5% trichloroacetic acid, and cAMP released from lysed cells is assayed by the cAMP ^125I scintillation proximity assay system (Amersham Biosciences).
EC50 values are calculated with a 95% confidence interval using GraphPad Prism software (using nonlinear regression analysis fitted with a sigmoidal dose-response curve with variable slope).

[4] = tested on: ICR:Hsd (CD-1) male mice; assay: Effect of orally administered BBC-1 on food consumption in normal mice; format: in vivo
Procedure: ICR:Hsd (CD-1) male mice, 7-8 weeks old, were raised in separate cages and maintained at 23±1° C. on a 12-hr light, 12-hr dark cycle (0700-1900 hr light). Mice were allowed ad libitum access to water and standard chow pellets. Upon arrival mice were allowed to acclimate for 1 week. Following fasting for 16 hours, the animals (n=8) were subjected to a single oral gavage (PO, 5 ml/kg) of BBC1 (100 μg/ml, 1000 μg/ml) or vehicle (water). Immediately after administration, fixed food doses were added and re-weighed after 1, 2, 3, 4, 5, 8 and 24 hours.

| Compound | IC50 [1] | further results |
| --- | --- | --- |
| N=C(N)NCCC[C@@H]1NC(=O)[C@@H](Cc2ccccc2)NC(=O)[C@H](Cc2ccccc2)NC(=O)CCCCC(=O)NCCCCN(CC(N)=O)C(=O)[C@H](Cc2c[nH]c3ccccc23)NC1=O [BBC13] (F[dF]RW[Nlys]-NH2; linker N-5 via Adipoyl) | 100 nM | – |
| N=C(N)NCCC[C@@H]1NC(=O)[C@@H](Cc2ccccc2)NC(=O)[C@H](Cc2ccccc2)NC(=O)CCCC(=O)NCCCCN(CC(N)=O)C(=O)[C@H](Cc2c[nH]c3ccccc23)NC1=O [BBC12] (F[dF]RW[Nlys]-NH2; linker N-5 via Glutaryl) | 100 nM | – |
| N=C(N)NCCC[C@@H]1NC(=O)[C@@H](Cc2ccccc2)NC(=O)[C@H](Cc2ccccc2)NC(=O)CCC(=O)NCCN(CC(N)=O)C(=O)[C@H](Cc2c[nH]c3ccccc23)NC1=O [BBC1] (F[dF]RW[N(2-Aminoethyl)Gly]-NH2; linker N-5 via Suc) | 90 nM | intestinal metabolic stability [2]: high and enzymatically stable; MC4R functionality and selectivity [3]: highly functional and selective; also recorded: specific activation of MC4R; food consumption (in words) ([4]; single oral administration, 24 hours): decreased food consumption; reduction of food consumption ([4]; single oral administration, over a period of 24 hr): ~40%; clinical signs post administration ([4]; single oral gavage, following 24 hours): did not show any special clinical signs |
| N=C(N)NCCC[C@@H]1NC(=O)[C@@H](Cc2ccccc2)NC(=O)[C@H](Cc2ccccc2)NC(=O)CCC(=O)NCCCN(CC(N)=O)C(=O)[C@H](Cc2c[nH]c3ccccc23)NC1=O [BBC8] (F[dF]RW[NGly(3-aminopropyl)]-NH2; linker N-5 via Suc) | 60 nM | – |
| N=C(N)NCCC[C@@H]1NC(=O)[C@@H](Cc2ccccc2)NC(=O)[C@H](Cc2ccccc2)NC(=O)CCCCC(=O)NCCN(CC(N)=O)C(=O)[C@H](Cc2c[nH]c3ccccc23)NC1=O [BBC10] (F[dF]RW[N(2-Aminoethyl)Gly]-NH2; linker N-5 via Adipoyl) | 120 nM | – |
| N=C(N)NCCC[C@@H]1NC(=O)[C@@H](Cc2ccccc2)NC(=O)[C@H](Cc2ccccc2)NC(=O)CCCCCC(=O)NCCN(CC(N)=O)C(=O)[C@H](Cc2c[nH]c3ccccc23)NC1=O [BBC9] (F[dF]RW[N(2-Aminoethyl)Gly]-NH2; linker N-5 via Heptanedioyl) | 100 nM | – |
| N=C(N)NCCC[C@@H]1NC(=O)[C@@H](Cc2ccccc2)NC(=O)[C@H](Cc2ccccc2)NC(=O)CCCCC(=O)NCCCN(CC(N)=O)C(=O)[C@H](Cc2c[nH]c3ccccc23)NC1=O [BBC15] (F[dF]RW[NGly(3-aminopropyl)]-NH2; linker N-5 via Adipoyl) | 60 nM | – |
| N=C(N)NCCC[C@@H]1NC(=O)[C@@H](Cc2ccccc2)NC(=O)[C@H](Cc2ccccc2)NC(=O)CCCC(=O)NCCCN(CC(N)=O)C(=O)[C@H](Cc2c[nH]c3ccccc23)NC1=O [BBC6] (F[dF]RW[NGly(3-aminopropyl)]-NH2; linker N-5 via Glutaryl) | 110 nM | – |
| N=C(N)NCCC[C@@H]1NC(=O)[C@@H](Cc2ccccc2)NC(=O)[C@H](Cc2ccccc2)NC(=O)CCCCCC(=O)NCCCN(CC(N)=O)C(=O)[C@H](Cc2c[nH]c3ccccc23)NC1=O [BBC7] (F[dF]RW[NGly(3-aminopropyl)]-NH2; linker N-5 via Heptanedioyl) | 100 nM | – |
